Results as given in ChEMBL document CHEMBL1201862, “PubChem BioAssay data set” (2004).
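Cultured in 96-well plates, cells were exposed to test compound for 48 hours across five concentrations. Abbreviation: GI50, concentration required for 50% inhibition of growth.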 Activity calls are given as the source filed them. Rule as the data show it: active = GI50 up to about 1.1 µM and inactive = higher.

Key:
Assay in all cases: NCI-60 cell line screen, 48 h
A498 = test system: A498
A549 = test system: A549
COLO 205 = test system: COLO 205
DU-145 = test system: DU-145
EKVX = test system: EKVX
HCT-116 = test system: HCT-116
HCT-15 = test system: HCT-15
HL-60 = test system: HL-60
HT-29 = test system: HT-29
M14 = test system: M14
MDA-N = test system: MDA-N
MOLT-4 = test system: MOLT-4
NCI-H460 = test system: NCI-H460
PC-3 = test system: PC-3
RPMI-8226 = test system: RPMI-8226
SF-539 = test system: SF-539
SK-MEL-28 = test system: SK-MEL-28
SNB-19 = test system: SNB-19
SNB-75 = test system: SNB-75
UACC-257 = test system: UACC-257

| SMILES | GI50 (A498) | GI50 (A549) | GI50 (COLO 205) | GI50 (DU-145) | GI50 (EKVX) | GI50 (HCT-116) | GI50 (HCT-15) [µM] | GI50 (HL-60) | GI50 (HT-29) | GI50 (M14) | GI50 (MDA-N) | GI50 (MOLT-4) | GI50 (NCI-H460) | GI50 (PC-3) | GI50 (RPMI-8226) | GI50 (SF-539) | GI50 (SK-MEL-28) | GI50 (SNB-19) | GI50 (SNB-75) | GI50 (UACC-257) |
| --- | --- | --- | --- | --- | --- | --- | --- | --- | --- | --- | --- | --- | --- | --- | --- | --- | --- | --- | --- | --- |
| C=CC(C)(C)c1c(OC)oc2ccc(OC)c(C)c2c1=O | > 100 µM (inactive) | > 100 µM (inactive) | > 100 µM (inactive) | > 100 µM (inactive) | > 100 µM (inactive) | 89.7 µM (inactive) | 98.2 | 70.6 µM (inactive) | 96.4 µM (inactive) | > 100 µM (inactive) | > 100 µM (inactive) | 49.5 µM (inactive) | > 100 µM (inactive) | 78.7 µM (inactive) | > 100 µM (inactive) | > 100 µM (inactive) | > 100 µM (inactive) | > 100 µM (inactive) | 89.5 µM (inactive) | > 100 µM (inactive) |
| CC(=O)Oc1ccc2c(c1)c1c(OC(C)=O)c3ccccc3c(OC(C)=O)c1n2Cc1cccc(C)c1 | 29.3 µM (inactive) | 31.3 µM (inactive) | 60.5 µM (inactive) | > 100 µM (inactive) | 15.8 µM (inactive) | 33.2 µM (inactive) | 53.7 | 42.4 µM (inactive) | > 100 µM (inactive) | 30.3 µM (inactive) | 60.4 µM (inactive) | 34.6 µM (inactive) | 30.3 µM (inactive) | 52.4 µM (inactive) | 20.5 µM (inactive) | 25.1 µM (inactive) | > 100 µM (inactive) | 67 µM (inactive) | 18.5 µM (inactive) |  |
| CC(=O)NC1CONC1=O (stereo unspecified) | > 100 µM (inactive) | > 100 µM (inactive) | > 100 µM (inactive) | > 100 µM (inactive) | > 100 µM (inactive) | > 100 µM (inactive) | > 100 | > 100 µM (inactive) | > 100 µM (inactive) | > 100 µM (inactive) | > 100 µM (inactive) | > 100 µM (inactive) | > 100 µM (inactive) | > 100 µM (inactive) | > 100 µM (inactive) | > 100 µM (inactive) | > 100 µM (inactive) | > 100 µM (inactive) | > 100 µM (inactive) | > 100 µM (inactive) |
| CC1(C)CC2C(=O)c3ccccc3NC2c2ccccc21 (stereo unspecified) | 6.21 µM (inactive) | 6.11 µM (inactive) | 3.44 µM (inactive) | 3.6 µM (inactive) | 43.2 µM (inactive) | 2.99 µM (inactive) | 3.6 | 2.11 µM (inactive) | 3.48 µM (inactive) | 5.28 µM (inactive) | 0.32 µM (active) | 0.735 µM (active) | 3.12 µM (inactive) | 3.6 µM (inactive) | 2.54 µM (inactive) | 2.33 µM (inactive) | 5.51 µM (inactive) | 5.79 µM (inactive) | 4.18 µM (inactive) | 40.4 µM (inactive) |
| CN(C)CCNc1ccc(C(=O)NCCCN(C)CCCNC(=O)c2ccc(NCCN(C)C)c3c(=O)c4ccccc4[nH]c23)c2[nH]c3ccccc3c(=O)c12 | 0.105 µM (active) | < 0.01 µM (active) | 0.0163 µM (active) | < 0.0134 µM (active) | 0.478 µM (active) | < 0.01 µM (active) | 3.81 | 0.155 µM (active) | < 0.01 µM (active) | 0.218 µM (active) | 0.0346 µM (active) | < 0.01 µM (active) | < 0.0163 µM (active) | 0.0783 µM (active) | < 0.01 µM (active) | < 0.01 µM (active) | 0.109 µM (active) | < 0.0118 µM (active) | < 0.01 µM (active) | 0.968 µM (active) |
| COc1ccc(/C=C/C(=O)Oc2ccccc2OC)cc1 | > 100 µM (inactive) | 37.8 µM (inactive) | 7.26 µM (inactive) | > 61.8 µM (inactive) | 37.8 µM (inactive) | 2.91 µM (inactive) | 3.27 | 6.98 µM (inactive) | 16.4 µM (inactive) | 30.6 µM (inactive) | 36.4 µM (inactive) | 1.57 µM (inactive) | > 100 µM (inactive) | 44.4 µM (inactive) | 1.95 µM (inactive) | 53.2 µM (inactive) | 73.5 µM (inactive) | 50.2 µM (inactive) | 27.2 µM (inactive) | > 60.7 µM (inactive) |
| COc1cc(C(=O)NNC(=O)c2cc(Br)ccc2NC(=O)c2cccs2)cc(OC)c1OC | 19.1 µM (inactive) | 21.2 µM (inactive) | 12.9 µM (inactive) | 29.3 µM (inactive) | 6.65 µM (inactive) | 18.7 µM (inactive) | 15.5 | 14.8 µM (inactive) | 19.5 µM (inactive) | 19.3 µM (inactive) | 24.8 µM (inactive) | 27.1 µM (inactive) | 20.2 µM (inactive) | 24 µM (inactive) | 13.2 µM (inactive) | 15.4 µM (inactive) |  | 23.1 µM (inactive) | 4.91 µM (inactive) | 22.5 µM (inactive) |
| CCC1([N+](=O)[O-])CN(N=O)C1 | > 100 µM (inactive) | > 100 µM (inactive) | > 100 µM (inactive) | > 100 µM (inactive) | > 100 µM (inactive) | > 100 µM (inactive) | > 100 | > 100 µM (inactive) | > 100 µM (inactive) | > 100 µM (inactive) | > 100 µM (inactive) | > 100 µM (inactive) | > 100 µM (inactive) | > 100 µM (inactive) | > 100 µM (inactive) | > 100 µM (inactive) | > 100 µM (inactive) | > 100 µM (inactive) | > 100 µM (inactive) | > 100 µM (inactive) |
| COc1cc(C2c3cc4c(cc3OC3(OC)COC(=O)C23)OCO4)cc(OC)c1OC (stereo unspecified) | 0.281 µM (active) | 0.375 µM (active) | 0.251 µM (active) | 0.395 µM (active) | 0.343 µM (active) | 0.267 µM (active) | 0.286 | 0.263 µM (active) | 0.274 µM (active) | 0.272 µM (active) | 0.075 µM (active) | 0.456 µM (active) | 0.38 µM (active) | 0.285 µM (active) | 0.284 µM (active) | 0.197 µM (active) | 0.4 µM (active) | 1.64 µM (inactive) | 0.311 µM (active) | 2.66 µM (inactive) |
| O=S1(=O)CCC2=CC(C(F)(F)F)=CC(C(F)(F)F)=CN21 | 2.08 µM (inactive) | 2.96 µM (inactive) | 0.454 µM (active) | 0.542 µM (active) | 2.93 µM (inactive) | 0.245 µM (active) | 0.485 | 0.168 µM (active) | 1.53 µM (inactive) | 0.693 µM (active) | 0.792 µM (active) | 0.243 µM (active) | 2.59 µM (inactive) | 2.01 µM (inactive) | 0.535 µM (active) | 1.42 µM (inactive) | 1.78 µM (inactive) | 2.47 µM (inactive) | 1.71 µM (inactive) | 2.14 µM (inactive) |
| CC1(C)C(=O)N(O)C(C)(C)N1O | > 10 µM (inactive) | > 10 µM (inactive) | > 10 µM (inactive) | > 10 µM (inactive) | > 10 µM (inactive) | > 10 µM (inactive) | > 10 | > 10 µM (inactive) | > 10 µM (inactive) | > 10 µM (inactive) | > 10 µM (inactive) | > 10 µM (inactive) | > 10 µM (inactive) | > 10 µM (inactive) | > 10 µM (inactive) | > 10 µM (inactive) | > 10 µM (inactive) | > 10 µM (inactive) | > 10 µM (inactive) | > 10 µM (inactive) |
| CCOP(C)(=O)C(N)Cc1ccc(OC)c(OC)c1 (stereo unspecified) | > 100 µM (inactive) | > 100 µM (inactive) | > 100 µM (inactive) | > 100 µM (inactive) | > 100 µM (inactive) | > 100 µM (inactive) | > 100 | > 100 µM (inactive) | > 100 µM (inactive) | > 100 µM (inactive) | > 100 µM (inactive) | > 100 µM (inactive) | > 100 µM (inactive) | > 100 µM (inactive) | > 100 µM (inactive) | > 100 µM (inactive) | > 100 µM (inactive) | > 100 µM (inactive) | > 100 µM (inactive) |  |
| NC(=O)c1cccc(/N=c2\oc3ccc(Br)cc3cc2-c2nc3ccccc3[nH]2)c1 | 18.4 µM (inactive) | 13.1 µM (inactive) | 14.6 µM (inactive) | 15.5 µM (inactive) | 13.9 µM (inactive) | 16.4 µM (inactive) | 12.7 | 18.1 µM (inactive) | 15.8 µM (inactive) | 15.7 µM (inactive) | 17.7 µM (inactive) | 12.5 µM (inactive) | 15.5 µM (inactive) | 14.3 µM (inactive) | 5.87 µM (inactive) | 2.49 µM (inactive) | > 100 µM (inactive) | 14.8 µM (inactive) | 1.47 µM (inactive) | 20 µM (inactive) |
| Clc1cccc2[nH]ncc12 | > 100 µM (inactive) | > 100 µM (inactive) | 74.6 µM (inactive) | > 100 µM (inactive) | 32.4 µM (inactive) | 66.7 µM (inactive) | > 100 | > 100 µM (inactive) | > 100 µM (inactive) |  | > 100 µM (inactive) | > 100 µM (inactive) | > 100 µM (inactive) | > 100 µM (inactive) | > 100 µM (inactive) | > 100 µM (inactive) | > 100 µM (inactive) | > 100 µM (inactive) | 45.3 µM (inactive) | > 100 µM (inactive) |
| C/C(=N\Nc1nc2ccccc2o1)c1cc2ccccc2cn1 | 15 µM (inactive) | 0.054 µM (active) | < 0.01 µM (active) | 0.349 µM (active) | < 0.01 µM (active) | < 0.01 µM (active) | < 0.01 | < 0.01 µM (active) | < 0.01 µM (active) | < 0.01 µM (active) | 0.942 µM (active) | < 0.01 µM (active) | 0.0311 µM (active) | < 0.01 µM (active) | < 0.0235 µM (active) | < 0.0281 µM (active) | 0.364 µM (active) | 0.547 µM (active) | 0.476 µM (active) | < 0.01 µM (active) |
